Legend:
Rat [1] = experiment: concentration in plasma after dosing; conditions: 15 h; dosed: Gemfibrozil; 50 mg/kg; oral; Male; Sprague-Dawley
Rat [2] = experiment: concentration in plasma after dosing; conditions: 2 h; dosed: Gemfibrozil; 100 mg/kg; oral; Male; Sprague-Dawley
Rat [3] = experiment: concentration in plasma after dosing; conditions: 10 min; dosed: Gemfibrozil; 100 mg/kg; oral; Male; Sprague-Dawley
Rat [4] = experiment: concentration in plasma after dosing; conditions: 0.25 h; dosed: Gemfibrozil; 100 mg/kg; oral; Male; Sprague-Dawley
Rat [5] = experiment: concentration in plasma after dosing; conditions: 5 min; dosed: Gemfibrozil; 100 mg/kg; oral; Male; Sprague-Dawley
Rat [6] = experiment: concentration in plasma after dosing; conditions: 6 h; dosed: Gemfibrozil; 50 mg/kg; oral; Male; Sprague-Dawley
Rat [7] = experiment: concentration in brain after dosing; conditions: 1.5 h; dosed: 2-Methyltetrahydrofuran; 40 mg/kg; iv; Male; Harlan Sprague Dawley
Rat [8] = experiment: concentration in plasma after dosing; conditions: 2 min; dosed: 2-Methyltetrahydrofuran; 40 mg/kg; iv; Male; Harlan Sprague Dawley
Rat [9] = experiment: concentration in plasma after dosing; conditions: 2 min; dosed: 2-Methyltetrahydrofuran; 40 mg/kg; iv; Female; Harlan Sprague Dawley
rat [10] = experiment: concentration in expired air after dosing; conditions: dosed: trichloroethylene, male
Rat [11] = experiment: concentration in brain after dosing; conditions: 24 h; dosed: Perfluorooctane Sulfonate; 2 mg/kg; oral; Female; Harlan Sprague Dawley
Rat [12] = experiment: concentration in liver after dosing; conditions: 1848 h; dosed: Perfluorooctane Sulfonate; 2 mg/kg; oral; Female; Harlan Sprague Dawley
Rat [13] = experiment: concentration in brain after dosing; conditions: 6 h; dosed: Perfluorooctane Sulfonate; 20 mg/kg; oral; Female; F344
Rat [14] = experiment: concentration in brain after dosing; conditions: 864 h; dosed: Perfluorooctane Sulfonate; 20 mg/kg; oral; Female; F344
Rat [15] = experiment: concentration in brain after dosing; conditions: 24 h; dosed: Perfluorooctane Sulfonate; 20 mg/kg; oral; Male; Harlan Sprague Dawley
Rat [16] = experiment: concentration in plasma after dosing; conditions: dosed: Perfluorooctane Sulfonate, 2 mg/kg, iv, Male, F344
Rat [17] = experiment: concentration in kidney after dosing; conditions: 24 h; dosed: Perfluorooctane Sulfonate; 20 mg/kg; oral; Female; F344
Rat [18] = experiment: concentration in plasma after dosing; conditions: dosed: Perfluorooctane Sulfonate, 2 mg/kg, iv, Male, F344; remark: listed apart in the source
Rat [19] = experiment: concentration in kidney after dosing; conditions: 3360 h; dosed: Perfluorooctane Sulfonate; 2 mg/kg; oral; Female; Harlan Sprague Dawley
Rat [20] = experiment: concentration in plasma after dosing; conditions: 1848 h; dosed: Perfluorooctane Sulfonate; 2 mg/kg; oral; Female; Harlan Sprague Dawley
Rat [21] = experiment: concentration in brain after dosing; conditions: 0.5 h; dosed: Perfluorohexanoic Acid; 80 mg/kg; oral; Female; Harlan Sprague Dawley
Rat [22] = experiment: concentration in plasma after dosing; conditions: dosed: Perfluorohexanoic Acid, 40 mg/kg, oral, Male, Harlan Sprague Dawley
Rat [23] = experiment: concentration in kidney after dosing; conditions: 3 h; dosed: Perfluorohexanoic Acid; 80 mg/kg; oral; Male; Harlan Sprague Dawley
Rat [24] = experiment: concentration in kidney after dosing; conditions: 6 h; dosed: Fluorotelomer alcohol 8+2; 80 mg/kg; oral; Female; Harlan Sprague Dawley

Cc1ccc(C)c(OCCCC(C)(C)C(=O)O)c1 [Gemfibrozil]
Conditions	concentration in plasma [ng/mL]
Rat [1]	1550
Rat [2]	10700
Rat [3]	130000
Rat [4]	72300
Rat [5]	1930
Rat [6]	7260

CC1CCCO1 (configuration not stated) [2-Methyltetrahydrofuran]
Conditions	concentration in brain [ng/mL]	concentration in plasma [ng/mL]
Rat [7]	6260	–
Rat [8]	–	57400
Rat [9]	–	52500

ClC=C(Cl)Cl [trichloroethylene]
concentration in expired air [ng/mL], rat [10], inhalation, duration: 2 hr, Sprague Dawley
Conditions	50 ppm	500 ppm
0.1579 h	–	1570
0.1611 h	155	–
0.242 h	178	–
0.2441 h	–	1630
0.3273 h	–	1620
0.3301 h	176	–
0.4933 h	177	1730
0.6596 h	–	1730
0.6597 h	179	–
0.8258 h	–	1800
0.8264 h	173	–
0.9952 h	–	1830
0.9958 h	179	–
1.165 h	188	1850
1.328 h	–	1740
1.332 h	184	–
1.497 h	–	1840
1.498 h	193	–
1.661 h	185	–
1.664 h	–	1820
1.825 h	183	–
1.83 h	–	1910
1.991 h	178	–
2 h	–	1790
2.008 h	61.8	–
2.016 h	–	704
2.04 h	35.4	–
2.049 h	–	532
2.071 h	30.5	–
2.081 h	–	458
2.103 h	8.92	–
2.113 h	–	399
2.157 h	17.3	–
2.161 h	–	379
2.238 h	13.8	–
2.248 h	–	359
2.493 h	10.2	–
2.501 h	–	221
2.741 h	7.87	–
2.754 h	–	152
2.992 h	7.93	–
3 h	–	97.3
3.244 h	5.59	–
3.25 h	–	82
3.495 h	2.05	–
3.502 h	–	52.1
3.746 h	0.904	22.1
3.994 h	2.17	–
3.998 h	–	26.5
4.494 h	1.08	–
4.501 h	–	25.5
4.996 h	1.2	–
5 h	–	14.7
40 s	129	–
42 s	–	1270
151 s	148	–
167 s	–	1440
285 s	161	–
293 s	–	1500

rat [10], 6 mg/kg, oral, Wistar
Conditions	concentration in expired air [ppm]
0.1223 h	4.6
0.1642 h	3.99
0.219 h	3.8
0.2464 h	2.7
0.4982 h	1.12
0.7463 h	0.349
1 h	0.198
1.245 h	0.161
1.496 h	0.113
1.748 h	0.0858
2 h	0.0858
99 s	0.987
289 s	3.59

O=S(=O)([O-])C(F)(F)C(F)(F)C(F)(F)C(F)(F)C(F)(F)C(F)(F)C(F)(F)C(F)(F)F [Perfluorooctane Sulfonate]
Conditions	concentration in brain [ng/g]	concentration in kidney [ng/g]	concentration in liver [ng/g]	concentration in plasma [ng/mL]
Rat [11]	553	–	–	–
Rat [12]	–	–	9070	–
Rat [13]	3990	–	–	–
Rat [14]	2700	–	–	–
Rat [15]	11600	–	–	–
Rat [17]	–	132000	–	–
Rat [19]	–	651	–	–
Rat [20]	–	–	–	966

concentration in plasma [ng/mL]
Conditions	12 h	864 h	3216 h
Rat [16]	4880	2120	–
Rat [18]	4350	995	99.5

O=C(O)C(F)(F)C(F)(F)C(F)(F)C(F)(F)C(F)(F)F [Perfluorohexanoic Acid]
Conditions	concentration in brain [ng/g]	concentration in kidney [ng/g]
Rat [21]	943	–
Rat [23]	–	65000

Rat [22]
Conditions	concentration in plasma [ng/mL]
1 h	39400
24 h	423

O=C(O)CCC(F)(F)C(F)(F)C(F)(F)C(F)(F)C(F)(F)C(F)(F)C(F)(F)F [Fluorotelomer acid 7+3]
Conditions	concentration in kidney [ng/g]
Rat [24]	3640

Reference: EPA's CvTdb concentration-time database
